The text below walks through data of US7521454B2 (Dainippon Sumitomo Pharma Co., Ltd., priority 2001, dated 2009).

Converted amounts (≈) assume the structure as drawn.

One data set concerns IL-5 production. Description: Inhibitory activity against Th2 cytokine produced from sensitized spleen cells: IL-5. The note with it: Mus musculus, 72 h, OVA-sensitized BALB/c spleen cells, 3 days, read-out: Inhibitory activity against IL-5 production. In kind it is cell-based, mouse. In outline: (§1)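 BALB/c mice immunized i.p. with 10 μg ovalbumin on alum, boosted at day 14; spleen cells taken 7 days later. Cells (5×10^6/well) restimulated with ovalbumin 0.5 mg/ml plus test compound, cultured 3 days at 37° C, 5% CO2. Supernatant cytokine quantified by ELISA.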

The nature of data set [1]: Solubility in citric acid/disodium phosphate buffers. The settings on record: thermodynamic from solid.
Description: 5.53% citric acid (monohydrate) and 1.75% disodium phosphate (anhydrous) were mixed together to prepare buffers (pH 2.5, 5.5, 7.4). A compound was added thereto, the mixture was stirred in a vortex mixer and subjected to ultrasonication for 30 minutes. Thereafter, the resultant was stirred in a vortex mixer again and then centrifuged at 15,000 rpm for 20 minutes. The levels of the compounds in the supernatants were then quantified by HPLC.
In data set [2] the test system is rat model of eosinophil leukocytic infiltration. Description: Rat model of eosinophil leukocytic infiltration (OVA, bronchoalveolar lavage). The note with it: 2.5 hours before induction, lavage 24 hours after. In kind it is in vivo. The method, then: A rat was immunized intraperitoneally with 1 ml of a solution containing 1 mg of ovalbumin (OVA) and 100 mg of Al(OH)3 on day 0 and day 7. On day 14, a 1% OVA solution was sprayed for 15 minutes using a ultrasonic nebulizer to induce reactions. A test compound was administered intratracheally 2.5 hours before the induction. Bronchoalveolar lavage was performed 24 hours after the induction, and eosinocytes in the wash was stained with Hinkelman to count the number of stained cells. Sensi.−/Challe.+, CMC-Na, and Fluticasone were used as controls. FIG. 1 and the following table show the results.

The subject of the next data set is Balb/c male mouse. Description: Interferon-inducing activity in mouse (in vivo), serum interferon titer after oral dosing. The settings on record: serum 2 h after dosing, Balb/c mouse.
The subject of another data set is male cynomolgus monkeys. Description: Interferon-inducing activity in cynomolgus monkey (in vivo), serum interferon titer and vomition. The settings on record: cynomolgus monkey, in vivo.
The next data set relates to mouse spleen cell. Description: cells. In kind it is cell-based. The note with it: Mus musculus, 24 h, read-out: Interferon-inducing activity: Minimum effective concentration.
In the next data set the test system is IL-4 production. Description: Inhibitory activity against Th2 cytokine produced from sensitized spleen cells: IL-4. In kind it is cell-based, mouse. The note with it: Mus musculus, 72 h, OVA-sensitized BALB/c spleen cells, 3 days, read-out: Inhibitory activity against IL-4 production. A digest of the protocol: as §1
Data set [3] can be described thus: Gastrointestinal absorption in rat (drug level in blood by HPLC). It is filed as in vivo. The settings on record: blood, dose 3 mg/kg oral, SD male rat. Here is the method: A test compound was suspended in an aqueous solution of 0.5% carboxymethylcellulose, and the resulting suspension was orally administered to an SD male rat. Blood was sampled with the elapse of time, and the level of the drug in blood was assayed by HPLC.

The subject of the next data set is Renca cells. Description: Antitumor effect in tumor-bearing mouse model (Renca). It is filed as in vivo. The note with it: Renca in BALB/c mice, 5 times every 4 days. The method, then: Murine renal adenocarcinoma-derived Renca cells (obtained from Iwate Medical University) were intradermally transplanted to the left ventral portions of 6-week-old BALB/c male mice (Charles River Japan, Inc.) at 5×10^4 cells/0.05 ml/mouse. Their body weights were measured on the next day, and they were divided into 5 groups (each group comprising 6 mice) in such a manner that the average body weights were substantially the same among groups. Vehicles (an aqueous solution of 0.5% carboxymethylcellulose (hereinafter referred to as “CMC-Na”)) and the compound of Example 27 (1 mg/kg and 3 mg/kg) were forcibly administered orally using an oral Sonde (10 ml/kg). Mouse interferon a (hereinafter referred to as “mIFN-α”) was intradermally administered to mice through their backs in amounts of 1×10^4 U/0.1 ml and 5×10^4 U/0.1 ml per mouse. Administration was carried out 5 times every 4 days. The longer diameter (L, mm) and the shorter diameter (W, mm) of the generated tumors were measured twice a week, and the tumor volumes (V, mm^3) were calculated (V=L×W^2). Also, significant difference was examined in accordance with Steel's multiple comparison. […]
A surveillance period of about 30 days after the transplantation was provided, the tumor volume and the body weight were monitored, and an antitumor effect against the Renca cells was evaluated. […]

The next data set has as its system OV2944-HM-1 cells. Description: Antitumor effect in mouse model of spontaneous metastasis (OV2944-HM-1). It is filed as in vivo. The settings on record: 35 days after transplantation, Example 27 3 mg/kg oral, mIFN-α 5×10^4 U intradermal. The method, then: OV2944-HM-1 cells (obtained from Hiroshima University) derived from mouse ovarian cancer that is highly metastatic to the lymph nodes were intradermally transplanted to the buttocks of 6-week-old B6C3F1 female mice (Charles River Japan, Inc.) in amounts of 1×10^6 cells/0.05 ml/mouse. Ten days after the transplantation, the primary tumor was excised under Nembutal anaesthesia. Adhesives (Aron Alpha) were applied to the excised portions, and the stumps were sewed up with wound clips. The next day, body weights were measured, and they were divided into 3 groups (each group comprising 6 mice) in such a manner that the average body weights among groups were substantially the same. Vehicles (aqueous solutions of 0.5% CMC-Na) and the compound of Example 27 (3 mg/kg) were forcibly administered orally using an oral Sonde (10 ml/kg). Also, 5×10^4 U/0.1 ml/mouse of mIFN-α was intradermally administered through their backs. Administration was carried out 5 times every 4 days. Regional lymph nodes (mouse cervical, brachium, axillary cavity) were extirpated 35 days after the transplantation, and their wet weights were measured. Simultaneously, lungs were extirpated to visually inspect the metastasis. Also, significant difference was examined in accordance with Steel's multiple comparison. The SAS system for Windows Release 8.01 (SAS Institute Inc., Cary, N.C., U.S.A.) was used for the examination.
Thus, pulmonary metastasis was examined.

A word on the solubility: it is the concentration that dissolves in the medium under given conditions. For orientation: Cmax means the highest concentration seen after dosing. In general, Tmax refers to the time at which the peak concentration occurs. On to `CCCCNc1nc(N)c2nc(O)n(Cc3ccc(C)nc3)c2n1` [Example 27, 2-Butylamino-8-hydroxy-9-(6-methyl-3-pyridylmethyl)adenine], for which the activity at 0.001 µM with IL-5 production (concentration 1 nM) came to 68%; in the data set with IL-4 production (concentration 1 nM), 30%. For the same molecule, the activity at 0.01 µM was 20% in the data set on IL-5 production (concentration 10 nM) and 1% in the data set on IL-4 production (concentration 10 nM). The activity at 0.1 µM with IL-5 production (concentration 100 nM) is 12%; in the data set on IL-4 production (concentration 100 nM), less than 1%. Further, the solubility at 30 min was 610 µg/mL (≈ 1860 µM) in data set [1] (pH 2.5, aqueous buffer); 5 µg/mL (≈ 15.3 µM) in data set [1] (pH 5.5, aqueous buffer); 2 µg/mL (≈ 6.11 µM) in [1] (pH 7.4, aqueous buffer). In addition, the results for the “eosinocytes in bronchoalveolar lavage, Average” value in data set [2] (0.001 mg/kg intratracheal), in data set [2] (0.01 mg/kg intratracheal) and in data set [2] (0.1 mg/kg intratracheal) were 383.85 ×10^4 cells, 186.77 ×10^4 cells and 46.84 ×10^4 cells, respectively. Besides, the values for the Interferon-inducing activity in the data set with Balb/c male mouse (dosage 0.03 mg/kg oral), in the data set with Balb/c male mouse (dosage 0.1 mg/kg oral) and in the data set with Balb/c male mouse (dosage 0.3 mg/kg oral) were 14 ± 3 U/ml, 324 ± 66 U/ml and 804 ± 274 U/ml, respectively. Also, the “interferon titer in blood serum (average±SE)” value in the data set with male cynomolgus monkeys is recorded as 14,488±6365 U/ml. Besides, the minimal effective concentration with mouse spleen cell is 0.003 µM. In addition, the Cmax in [3] (read-out: Cmax) stood at 565 ng/mL. Further, the Tmax in [3] (read-out: Tmax) was determined as 30 min. Also, the “antitumor effect compared with mIFN-α” value with Renca cells (1 and 3 mg/kg oral) was “equivalent to or higher than that attained by the administration of mIFN-α”. Besides, in the data set with Renca cells (Example 27 1 and 3 mg/kg oral, mIFN-α 1×10^4 and 5×10^4 U intradermal, P<0.05), the “tumor volume compared with the vehicle group” value is listed as “significantly smaller”. Further, the “pulmonary metastasis (visual inspection), in words” value in the data set on OV2944-HM-1 cells is given as “not observed at all”. Moreover, the “lymph node metastasis (wet weight of metastasis lymph nodes vs vehicle group)” value in the data set on OV2944-HM-1 cells (B6C3F1 mice, 5 times every 4 days) is “smaller than those attained from the group to which vehicles were administered”. Moreover, in the data set with OV2944-HM-1 cells (visual inspection), the “The number of mice which exhibited pulmonary metastasis in 6 mice” value amounted to 0.
